pEC50, pIC50: −log10 of the molar value.
Assays:
TNFα = test: IRAK4 Monocyte TNFα Cell Based Assay; conditions: cryopreserved human monocytes, 50 pg/ml LPS, compound 1 hour pre-treatment, 4 hours stimulation, TNFα by TR-FRET
How it was run: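 Monocytes at 5,000 cells/well were pre-treated with compound for 1 h at 37 °C (0.1% DMSO final), then stimulated with 50 pg/ml LPS for 4 h. Secreted TNFα in supernatant was measured by TR-FRET (665/615 ratio), expressed as % control relative to unstimulated and stimulated cells.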

IRAK4 = IRAK4 (Homo sapiens (Human), UniProt Q9NWZ3); test: IRAK4 Biochemical Assay (TR-FRET/HTRF); conditions: IRAK4 enzyme 0.75 nM, 500 μM ATP, 2 μM STK1 peptide, 120 min
IRAK4, sequence (Q9NWZ3 whole entry): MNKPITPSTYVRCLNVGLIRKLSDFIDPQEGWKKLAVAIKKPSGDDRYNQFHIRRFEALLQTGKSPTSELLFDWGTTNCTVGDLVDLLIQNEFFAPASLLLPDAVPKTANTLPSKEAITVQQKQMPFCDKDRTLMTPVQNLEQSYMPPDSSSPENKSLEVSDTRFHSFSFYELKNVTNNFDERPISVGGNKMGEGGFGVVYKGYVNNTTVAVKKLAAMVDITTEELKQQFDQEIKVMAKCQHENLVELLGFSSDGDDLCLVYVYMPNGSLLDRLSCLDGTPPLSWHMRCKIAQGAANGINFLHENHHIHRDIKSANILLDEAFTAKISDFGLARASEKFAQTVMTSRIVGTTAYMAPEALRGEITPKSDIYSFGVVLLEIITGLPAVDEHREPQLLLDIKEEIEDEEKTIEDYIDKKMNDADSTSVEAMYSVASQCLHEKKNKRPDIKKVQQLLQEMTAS
How it was run: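 Recombinant IRAK4 (0.75 nM) with 2 µM STK1 peptide and 500 µM ATP in pH 7.0 HEPES/Mg buffer; compound preincubated 15 min with enzyme and peptide, then 120 min reaction at room temperature. HTRF readout: cryptate anti-phospho-peptide antibody, 665/615 nm ratio; % inhibition against no-inhibitor and saturating-staurosporine controls.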

Compound	pEC50 (TNFα; Monocyte)	pIC50 (IRAK4)	pEC50 (TNFα)
CC(C)(O)[C@H](F)CNC(=O)c1cnc(-c2ccc3cc(C#N)cnn23)cc1N[C@H]1CC[C@H](n2cc(C3CC3)nn2)CC1 [Compound 32, 6-(3-cyanopyrrolo[1,2-b]pyridazin-7-yl)-4-(((1r,4R)-4-(4-cyclopropyl-1H-1,2,3-triazol-1-yl)cyclohexyl)amino)-N-((R)-2-fluoro-3-hydroxy-3-methylbutyl)nicotinamide]	7.20	9.00	
CC(C)(O)[C@H](F)CNC(=O)c1cnc(-c2ccc3cc(C#N)cnn23)cc1N[C@H]1CC[C@H](n2cnnc2C(F)F)CC1 [Compound 37, 6-(3-cyanopyrrolo[1,2-b]pyridazin-7-yl)-4-(((1r,4R)-4-(3-(difluoromethyl)-4H-1,2,4-triazol-4-yl)cyclohexyl)amino)-N-((R)-2-fluoro-3-hydroxy-3-methylbutyl)nicotinamide]	7.40	9.00	
CC(C)(O)[C@H](F)CNC(=O)c1cnc(-c2ccc3cc(C#N)cnn23)cc1N[C@H]1CC[C@H](c2ccn(C(F)F)n2)CC1 [Compound 8, 6-(3-cyanopyrrolo[1,2-b]pyridazin-7-yl)-4-(((1r,4R)-4-(1-(difluoromethyl)-1H-pyrazol-3-yl)cyclohexyl)amino)-N-((R)-2-fluoro-3-hydroxy-3-methylbutyl)nicotinamide]	7.44	9.00	
CC(C)(O)[C@H](F)CNC(=O)c1cnc(-c2ccc3cc(C#N)cnn23)cc1N[C@H]1CC[C@@H](c2cn[nH]c2)CC1 [Compound 2, 4-(((1s,4S)-4-(1H-pyrazol-4-yl)cyclohexyl)amino)-6-(3-cyanopyrrolo[1,2-b]pyridazin-7-yl)-N-((R)-2-fluoro-3-hydroxy-3-methylbutyl)nicotinamide]	7.18	> 9.00	
CC(C)(O)[C@H](F)CNC(=O)c1cnc(-c2ccc3cc(C#N)cnn23)cc1N[C@H]1CC[C@H](c2nnc(C(F)F)o2)CC1 [Compound 42, 6-(3-cyanopyrrolo[1,2-b]pyridazin-7-yl)-4-(((1r,4R)-4-(5-(difluoromethyl)-1,3,4-oxadiazol-2-yl)cyclohexyl)amino)-N-((R)-2-fluoro-3-hydroxy-3-methylbutyl)nicotinamide]	7.62	> 9.00	

Results, then the compound that gave them:

pEC50 (TNFα; Monocyte)	pIC50 (IRAK4)	pEC50 (TNFα)	Compound
7.48	> 9.00		Cc1nnc([C@H]2CC[C@H](Nc3cc(-c4ccc5cc(C#N)cnn45)ncc3C(=O)NC[C@@H](F)C(C)(C)O)CC2)o1 [Compound 39, 6-(3-cyanopyrrolo[1,2-b]pyridazin-7-yl)-N-((R)-2-fluoro-3-hydroxy-3-methylbutyl)-4-(((1r,4R)-4-(5-methyl-1,3,4-oxadiazol-2-yl)cyclohexyl)amino)nicotinamide]
	9.19	7.50	CC(C)(O)[C@H](F)CNC(=O)c1cnc(-c2ccc3cc(C#N)cnn23)cc1N[C@H]1CC[C@H](c2nnn(C(F)F)n2)CC1 [Compound 72, 6-(3-cyanopyrrolo[1,2-b]pyridazin-7-yl)-4-(((1r,4R)-4-(2-(difluoromethyl)-2H-tetrazol-5-yl)cyclohexyl)amino)-N-((R)-2-fluoro-3-hydroxy-3-methylbutyl)nicotinamide]
7.74	> 9.00		CC(C)(O)[C@H](F)CNC(=O)c1cnc(-c2ccc3cc(C#N)cnn23)cc1N[C@H]1CC[C@H](c2ccccn2)CC1 [Compound 54, 6-(3-cyanopyrrolo[1,2-b]pyridazin-7-yl)-N-((R)-2-fluoro-3-hydroxy-3-methylbutyl)-4-(((1r,4R)-4-(pyridin-2-yl)cyclohexyl)amino)nicotinamide]

Reference: patent US11572362B2, “Pyrrolo[1,2-b]pyridazine derivatives” (Gilead Sciences, Inc., priority 2018, dated 2023)
